Measurements reported in patent US20030022821A1, “Bioactive peptides” (priority 1998, published 2003).
≈ marks a conversion by molar mass, not a printed value. Where two headings read alike, the source gives them in different places. Ends that are not written are not given here. Peptide text beside a SMILES is read from it. * marks the point of attachment. Acm = CC(=O)NC*

Columns and labels:
[1] = test system: Escherichia coli ATCC 25922; format: cell-based
Method in brief: (§1)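 Microdilution MIC; 1% Bacto Peptone water; inoculum 2×10^6 CFU/ml, mid-log cells; triplicates; peptide levels verified by HPLC before and after addition to wells.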

[2] = test system: Staphylococcus aureus ATCC 25923; format: cell-based
Method in brief: as §1

human red blood cells = test: Hemolytic assay; format: cell-based
[3] = test system: Meth A cells (murine sarcoma cell line); test: Cytotoxicity on Meth A cells, MTT method
Protocol: Peptide solutions (0.1 ml) were added and the plates incubated at 37° C. for 30 minutes, 4 hours or 24 hours. The cytotoxicity was measured using the MTT method (Mosmann et al., J. Immunol. (1986) 136, 2348-2357).
Cells in the growth phase were harvested and washed in fresh medium and injected subcutaneously into the abdominal region of the mice.
The cytotoxic effect of the peptides on different murine and human tumor cells were measured using the MTT method (Mosmann et al., J. Immunol. (1986) 136, 2348-2357). MTT is a soluble tetrazolium salt yielding a yellow solution when prepared in media or salt solutions lacking phenol red. Dissolved MTT is converted to an insoluble purple formazan by cleavage of the tetrazolium ring by dehydrogenase enzymes. This water insoluble formazan can be solubilized using isopropanol or other solvents and the dissolved material is measured spectrophotometrically. The absorbance was measured as a function of concentration of converted dye.
Cells were maintained in […] medium containing 10% FBS, 1% L-glutamine and 0.1% penicillin and streptomycin. Cells to be used in the assay were grown to confluency, trypsinated and split to single cell suspension, counted and centrifuged at 1500 rpm for 10 min. […][…] of cell suspension was transferred to each well on a 96-well microtiter plate. The cells were stimulated by adding […] of various concentrations of peptides diluted with assay medium to each well. The final concentrations of peptide were for example: 5, 10, 20, 40, 60, 80, 100, and 200 mg/ml. […] As a negative control only medium was added to the cells, and as a positive control (100% killing) 1% triton X-100 was added. Following an incubation period of 4 h., 20 ml MTT dissolved in PBS at a concentration of 5 mg/ml was added to each well, and the plate was incubated further for 2 h. 130 ml of the supernatant were then removed and […] acid alcohol (0.04-0.1 N HCl in isopropanol) added to each well to dissolve the dark blue crystals. The plate was placed on a shaker for 1 h and read spectrophotometrically at 590 nm in a microtiterplate reader using the Softmaxâ program.

normal fibroblasts = format: cell-based
[4] = read-out: MethA IC 50, Table 7, peptide required to kill 50% of MethA cells

CSCC[C@H](NC(=O)[C@H](CCCNC(=N)N)NC(=O)[C@H](Cc1c[nH]c2ccccc12)NC(=O)[C@H](CCC(N)=O)NC(=O)[C@H](Cc1c(S(=O)(=O)c2c(C)c(C)c3c(c2C)CCC(C)(C)O3)[nH]c2ccccc12)NC(=O)[C@H](CCCNC(=N)N)NC(=O)[C@H](CCCNC(=N)N)NC(=O)[C@H](CSCNC(C)=O)NC(=O)[C@H](CCCCN)NC(=O)[C@@H](N)Cc1ccccc1)C(=O)N[C@@H](CCCCN)C(=O)N[C@@H](CCCCN)C(=O)N[C@@H](CC(C)C)C(=O)NCC(=O)N[C@@H](C)C(=O)O [LFB PMC6]
MIC E. coli ([1]; Table 11): 10 µg/mL (≈ 4.29 µM) | MIC S. aureus ([2]; Table 11): 10 µg/mL (≈ 4.29 µM) | EC 50 (human red blood cells): >1000 µg/mL | EC50 (human red blood cells): > 429 µM | % Hemolysis 10 μg/ml (human red blood cells; red cells of human): 3.4% | % Hemolysis 100 μg/ml (human red blood cells; red cells of human): 6% | MethA IC50 ([3]; 4 h): 148 µg/mL

CSCC[C@H](NC(=O)[C@H](CCCNC(=N)N)NC(=O)[C@H](Cc1c(S(=O)(=O)c2c(C)c(C)c3c(c2C)CCC(C)(C)O3)[nH]c2ccccc12)NC(=O)[C@H](CCC(N)=O)NC(=O)[C@H](Cc1c[nH]c2ccccc12)NC(=O)[C@H](CCCNC(=N)N)NC(=O)[C@H](CCCNC(=N)N)NC(=O)[C@H](CSCNC(C)=O)NC(=O)[C@H](CCCCN)NC(=O)[C@@H](N)Cc1ccccc1)C(=O)N[C@@H](CCCCN)C(=O)N[C@@H](CCCCN)C(=O)N[C@@H](CC(C)C)C(=O)NCC(=O)N[C@@H](C)C(=O)O [LFB PMC8]
MIC E. coli ([1]; ATCC 25922): 18 µg/mL (≈ 7.72 µM) | MIC S. aureus ([2]; ATCC 25923): 10 µg/mL (≈ 4.29 µM) | % Hemolysis 10 μg/ml (human red blood cells; red cells of human): 3.6% | % Hemolysis 100 μg/ml (human red blood cells; red cells of human): 9.79% | MethA IC50 ([3]; 4 h): 150 µg/mL

CC(=O)NCSC[C@H](NC(=O)[C@H](CCCCN)NC(=O)[C@@H](N)Cc1ccccc1)C(=O)N[C@@H](Cc1c[nH]c2ccccc12)C(=O)N[C@@H](CCCNC(=N)N)C(=O)N[C@@H](Cc1c[nH]c2ccccc12)C(=O)N[C@@H](CCC(N)=O)C(=O)N[C@@H](Cc1c[nH]c2ccccc12)C(=O)N[C@@H](CCCNC(=N)N)C(=O)N[C@@H](Cc1c[nH]c2ccccc12)C(=O)N[C@@H](CCCCN)C(=O)N[C@@H](CCCCN)C(=O)N[C@@H](CC(C)C)C(=O)NCC(=O)N[C@@H](C)C(=O)O [LFB W4, 10, H2N-Phe-Lys-Cys-Trp-Arg-Trp-Gln-Trp-Arg-Trp-Lys-Lys-Leu-Gly-Ala-COOH] (H-FKC(Acm)WRWQWRWKKLGA-OH)
MIC E. coli ([1]; ATCC 25922): 5 µg/mL (≈ 2.32 µM) | MIC E. coli ([1]; Table 6): 5 µg/mL (≈ 2.32 µM) | MIC S. aureus ([2]; ATCC 25923): 10 µg/mL (≈ 4.65 µM) | MIC S. aureus ([2]; Table 6, unit assumed): 10 µg/mL (≈ 4.65 µM) | % Hemolysis 10 μg/ml (human red blood cells; red cells of human): 4.45% | % Hemolysis 100 μg/ml (human red blood cells; red cells of human): 27.8% | Meth A IC50 ([3]; 4 h): 500 µg/mL

PAARKAFRWAWRMLKKAA-OH [LFB 14-31A2,3,6, 10, 17F7K16L14R4]
Mic E-coli ([1]; ATCC 25922): 15 µM | Mic S. Aureus ([2]; ATCC 25923): 10 µM | EC50 (human red blood cells; red cells of human): > 463 µM | IC50 ([3]; 4 h): 24.1 µM | IC50 (normal fibroblasts): 190 µM

PAIRKAFRIAIRMLKKAA-OH
Mic E-coli ([1]; ATCC 25922): 2.5 µM | Mic S. Aureus ([2]; ATCC 25923): 10 µM | EC50 (human red blood cells; red cells of human): > 487 µM | IC50 ([3]; 4 h): 47 µM | IC50 (normal fibroblasts): 280 µM

PAIRKAFRIAWRMLKKAA-OH [LFB 14-31A2,6, 10, 17F7I3, 9K16L14R4]
Mic E-coli ([1]; ATCC 25922): 5 µM | Mic S. Aureus ([2]; ATCC 25923): 5 µM | EC50 (human red blood cells; red cells of human): > 470 µM | IC50 ([3]; 4 h): 36 µM | IC50 (normal fibroblasts): 108 µM

PAIRKAFRWAIRMLKKAA-OH [LFB 14-31A2,6, 10, 17F7I3, 11K16L14R4]
Mic E-coli ([1]; ATCC 25922): 2.5 µM | Mic S. Aureus ([2]; ATCC 25923): 5 µM | EC50 (human red blood cells; red cells of human): 413 µM | IC50 ([3]; 4 h): 16 µM | IC50 (normal fibroblasts): 45 µM

PAIRKAFRWAWRMLKKAA-OH [LFB 14-31A2,6, 10, 17F7I3K16L14R4]
Mic E-coli ([1]; Table 17): 2/4 | Mic S. Aureus ([2]; Table 17): 2/4 | EC50 (human red blood cells; red cells of human): 323 µM | IC50 ([3]; 4 h): 9 µM | IC50 (normal fibroblasts): 20 µM

PAKRKAFRWAWRMLKKAA-OH [LFB 14-31A2,6, 10, 17F7K3, 16L14R4]
EC50 (human red blood cells; red cells of human): > 451 µM | IC50 ([3]; 4 h): 230 µM | IC50 (normal fibroblasts): 230 µM

PAWFKAFRWAWRMLKKAA-OH [LFB 14-31 A2,6, 10, 17F7K16L14]
MIC E. coli ([1]; ATCC 25922): 10 µg/mL | MIC S. aureus ([2]; ATCC 25923): 10 µg/mL | EC50 (human red blood cells; red cells of human): > 440 µM | IC50 [3, 4]: 28.1 µM

PAWRKAARWAWRMLKKAA-OH [LFB 14-31A2,6, 10, 17F7K16L14R4 F7 → A7]
Mic E-coli ([1]; ATCC 25922): 15 µM | Mic S. Aureus ([2]; ATCC 25923): 10 µM | EC50 (human red blood cells; red cells of human): > 455 µM | IC50 ([3]; 4 h): 34.6 µM | IC50 (normal fibroblasts): 289 µM

PAWRKAFRAAARMLKKAA-OH [LFB 14-31A2,6,9, 10, 11, 17F7K16L14R4]
Mic E-coli ([1]; ATCC 25922): 30 µM | Mic S. Aureus ([2]; ATCC 25923): 30 µM | EC50 (human red blood cells; red cells of human): > 489 µM | IC50 ([3]; 4 h): 110 µM | IC50 (normal fibroblasts): > 489 µM

PAWRKAFRAAWRMLKKAA-OH [LFB 14-31A2,6,9, 10, 17F7K16L14R4]
Mic E-coli ([1]; ATCC 25922): 10 µM | Mic S. Aureus ([2]; ATCC 25923): 5 µM | EC50 (human red blood cells; red cells of human): 382 µM | IC50 ([3]; 4 h): 16.2 µM | IC50 (normal fibroblasts): 46.3 µM

PAWRKAFRIAIRMLKKAA-OH [LFB 14-31A2,6, 10, 17F7I9, 11K16L14R4]
IC50 ([3]; 4 h): 22 µM | IC50 (normal fibroblasts): 26 µM

PAWRKAFRIAWRMLKKAA-OH [LFB 14-31A2,6, 10, 17F7I9K16L14R4]
Mic E-coli ([1]; ATCC 25922): 5 µM | Mic S. Aureus ([2]; ATCC 25923): <1 µM | IC50 ([3]; 4 h): 12 µM | IC50 (normal fibroblasts): 26 µM

PAWRKAFRKAKRMLKKAA-OH [LFB 14-31A2,6, 10, 17F7K9, 11, 16L14R4]
EC50 (human red blood cells; red cells of human): > 463 µM | IC50 ([3]; 4 h): > 300 µM | IC50 (normal fibroblasts): > 463 µM

PAWRKAFRKAWRMLKKAA-OH [LFB 14-31A2,6, 10, 17F7K9, 16L14R4]
Mic E-coli ([1]; ATCC 25922): 30 µM | Mic S. Aureus ([2]; ATCC 25923): 10 µM | EC50 (human red blood cells; red cells of human): > 451 µM | IC50 ([3]; 4 h): 13.5 µM | IC50 (normal fibroblasts): 58.7 µM

PAWRKAFRWAARMLKKAA-OH [LFB 14-31A2,6, 10, 11, 17F7K16L14R4]
Mic E-coli ([1]; ATCC 25922): 10 µM | Mic S. Aureus ([2]; ATCC 25923): >2.5 µM | EC50 (human red blood cells; red cells of human): 278 µM | IC50 ([3]; 4 h): 11.1 µM | IC50 (normal fibroblasts): 46.3 µM

PAWRKAFRWAIRMLKKAA-OH [LFB 14-31A2,6, 10, 17F7I11K16L14R4]
Mic E-coli ([1]; Table 17): 2/5 | Mic S. Aureus ([2]; ATCC 25923): <1 µM | IC50 ([3]; 4 h): 6 µM | IC50 (normal fibroblasts): 15 µM

PAWRKAFRWAKRMLKKAA-OH [LFB 14-31A2,6, 10, 17F7K11, 16L14R4]
Mic E-coli ([1]; ATCC 25922): 5 µM | Mic S. Aureus ([2]; ATCC 25923): <2.5 µM | EC50 (human red blood cells; red cells of human): > 451 µM | IC50 ([3]; 4 h): 7.9 µM | IC50 (normal fibroblasts): 30.7 µM

PAWRKAFRWAWRMKKLAA-OH [LFB 14-31 A2,6, 10, 17F7R4]
MIC E. coli ([1]; ATCC 25922): 10 µg/mL | MIC S. aureus ([2]; ATCC 25923): 2.5 µg/mL | EC50 (human red blood cells; red cells of human): > 440 µM | IC50 [3, 4]: 30.2 µM

PAWRKARRWAWRMKKLAA-OH [LFB 14-31 A2,6, 10, 17R4]
MIC E. coli ([1]; ATCC 25922): 30 µg/mL | MIC S. aureus ([2]; ATCC 25923): 20 µg/mL | EC50 (human red blood cells; red cells of human): > 438 µM | IC50 [3, 4]: 75.8 µM

RRWAWRMKK-OH [LFB 20-28 A4]
MIC E. coli ([1]; ATCC 25922): >100 µg/mL | MIC S. aureus ([2]; ATCC 25923): >100 µg/mL | % Hemolysis 10 μg/ml (human red blood cells; red cells of human): 0% | % Hemolysis 100 μg/ml (human red blood cells; red cells of human): 1.68% | MethA IC50 ([3]; 4 h): 500 µg/mL

RRWQWRMKKL-OH [LFB 20-29]
MIC E. coli ([1]; ATCC 25922): 60 µg/mL | MIC S. aureus ([2]; ATCC 25923): >100 µg/mL | % Hemolysis 10 μg/ml (human red blood cells; red cells of human): 1.75% | % Hemolysis 100 μg/ml (human red blood cells; red cells of human): 2.74% | MethA IC50 ([3]; 4 h): 500 µg/mL
